{"source": "patent US20240277745A1", "about": "“PEMAFIBRATE AND/OR TOFOGLIFLOZIN FOR USE IN TREATING LIVER DISEASE” (KOWA COMPANY, LTD, priority 2021, published 2024)", "type_in_all_cases": "in vivo, human", "key": {"[1]": {"test_system": "patients with biopsy-confirmed NAFLD and type 2 diabetes", "experiment": "Example 3 clinical trial: metabolic parameters", "source_text": "(§1) 1. The biopsy consistent with the diagnosis of NAFLD 2. Type 2 diabetes, HbA1c>=7.0% • Hepatic virus infections, autoimmune hepatitis, primary biliary cirrhosis, sclerosing cholangitis, haemochromatosis, antitrypsin deficiency, Wilsons disease, history of parenteral nutrition and use of drugs known to induce steatosis or hepatic injury caused by substance abuse and or the current or past consumption of more than 20 g of alcohol daily • Hypersensitivity to or contraindication of glimepiride and tofogliflozin • None type 2 diabetes • Poorly controlled diabetes • Repeated episodes of unexplained hypoglycemia • Concomitant infection or planned surgery • Poorly controlled hypertension • Severe retinopathy • Malignancy on an active therapeutic regimen or malignancy without complete remission or cure • Severe health problems not suitable for the study • Pregnant or lactating women • Inability to participate in the study as assessed by the investigators. A total of 40 patients were randomly assigned to receive once-daily tofogliflozin at a dose of 20 mg (20 patients) or to receive once-daily glimepiride (20 patients). All 40 patients (100%) completed the trial. Demographic and baseline clinical characteristics except for gender were similar in both groups. The patients were all Japanese and type 2 diabetes. The mean age was 53.9 years, the mean body weight 82.0 kg, the mean Hemoglobin A1c 8.2%, and the mean NAS 4.45. A total of 18 patients (45%) had stage F1 fibrosis, 11 (27.5%) had stage F2, and 5 (12.5%) had stage F3. A total of 40 patients were randomly assigned to receive once-daily tofogliflozin at a dose of 20 mg (20 patients) or to receive once-daily glimepiride (20 patients). All 40 patients (100%) completed the trial. Information for the primary and confirmatory secondary outcomes related to a biopsy at week 48 was available for 39 patients (97.5%). For only one patient with a serious adverse event (2.5%)."}, "[2]": {"test_system": "patients with biopsy-confirmed NAFLD and type 2 diabetes", "experiment": "Example 3 clinical trial: serum enzyme levels and liver test", "source_text": "as §1"}, "[3]": {"test_system": "patients with biopsy-confirmed NAFLD and type 2 diabetes", "experiment": "Example 3 clinical trial: liver histology (biopsy) at 48 weeks", "source_text": "as §1"}, "[4]": {"conditions": "week 48, P<0.001 for the comparison with glimepiride"}, "[5]": {"conditions": "baseline to 48 weeks, tofogliflozin 20 mg once daily"}}}
{"compound": "CCc1ccc(Cc2ccc3c(c2)[C@]2(OC3)OC(CO)[C@@H](O)C(O)C2O)cc1", "note": "(stereo in doubt) [tofogliflozin, 6-((4-ethylphenyl)methyl)-3′,4′,5′,6′-tetrahydro-6′-(hydroxymethyl)spiro(isobenzofuran-1(3H),2′-(2H)pyran)-3′,4′,5′-triol]", "values": [{"measurement": "BMI (in words)", "setting": "[1]; tofogliflozin 20 mg once daily", "value": "significant reduction"}, {"measurement": "percentage of body fat (in words)", "setting": "[1]; tofogliflozin 20 mg once daily", "value": "significant reduction"}, {"measurement": "mean body weight decrease", "setting": "[1]; [4]", "value": 4.8, "unit": "kg"}, {"measurement": "FIB-4 index (in words)", "setting": "[2]; tofogliflozin 20 mg once daily", "value": "significantly reduced"}, {"measurement": "alanine aminotransferase levels (in words)", "setting": "[2]; tofogliflozin 20 mg once daily", "value": "early and highly significant decrease"}, {"measurement": "aspartate aminotransferase levels (in words)", "setting": "[2]; tofogliflozin 20 mg once daily", "value": "early and highly significant decrease"}, {"measurement": "gamma-glutamyl transferase, mean decrease", "setting": "[2]; [4]", "value": 23.8, "unit": "IU/L"}, {"measurement": "NAS compared with baseline values (in words)", "setting": "[3]; 48 weeks", "value": "improved significantly"}, {"measurement": "fibrosis score (in words)", "setting": "[3]; 48 weeks", "value": "significantly reduced"}, {"measurement": "lobular inflammation score (in words)", "setting": "[3]; 48 weeks", "value": "significantly reduced"}, {"measurement": "mean ballooning scores (in words)", "setting": "[3]; 48 weeks", "value": "significantly reduced"}, {"measurement": "mean steatosis scores (in words)", "setting": "[3]; 48 weeks", "value": "significantly reduced"}, {"measurement": "percentage of steatosis (in words)", "setting": "[3]; 48 weeks", "value": "significantly reduced"}, {"measurement": "ratio of the patients with improvement in ballooning necrosis", "setting": "[3]; [5]", "value": 55, "unit": "%"}, {"measurement": "ratio of the patients with improvement in lobular inflammation", "setting": "[3]; [5]", "value": 50, "unit": "%"}, {"measurement": "ratio of the patients with improvement in steatosis", "setting": "[3]; [5]", "value": 65, "unit": "%"}, {"measurement": "fibrosis scores improved", "setting": "[3]; before and after treatment, 48 weeks, P=0.001", "value": 60, "unit": "%"}, {"measurement": "histologic improvement from baseline to 48 weeks (in words)", "setting": "[3]; once-daily treatment, 48 weeks", "value": "significant histologic improvements from baseline to 48 weeks in all variables"}]}
